According to article PMC6614837 (Nucleic Acids Research, 2019):

How the values were obtained:
[1] = molecular target: T1, RNase P holoenzyme from Thermotoga maritima (Thermotoga maritima, UniProt Q9X1H4); assay: Real-time fluorescence-based (FRET) RNase P activity assay with minihelix (Mh) substrate; assay type: biochemical; settings: for IC50: fluorescent Mh substrate 270 nM, holoenzyme 33 nM, 10% DMSO, 37°C, 400 mM AmOAc, 100 mM MgCl2
T1 construct: made in house
T1 sequence (Q9X1H4 1-117): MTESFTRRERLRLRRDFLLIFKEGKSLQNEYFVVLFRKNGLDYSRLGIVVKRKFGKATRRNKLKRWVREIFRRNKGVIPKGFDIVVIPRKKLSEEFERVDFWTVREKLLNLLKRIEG
Procedure, shortened: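 Reconstituted holoenzyme (P RNA:P protein 1:1.1) at 33 nM with 270 nM minihelix labelled Alexa Fluor 488/BHQ quencher, in buffer H (pH 7.4, 400 mM AmOAc, 100 mM MgCl2), 10% DMSO, 37°C. Cleavage followed as fluorescence increase (ex 485, em 535 nm); initial velocities from linear slopes.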

[2] = molecular target: T1, RNase P holoenzyme from Thermotoga maritima; assay: Real-time fluorescence-based RNase P activity assay with bipartite pre-tRNA substrate; assay type: biochemical; settings: fluorescent bipartite pre-tRNA substrate, holoenzyme 33 nM, 10% PEG 200 in place of DMSO
Method: The reconstitution of the RNase P holoenzyme was performed as described in ([40],[19]). This protocol produces a homogeneous and functional ribozyme that can be crystallized by mixing P RNA and P protein in a 1:1.1 molar ratio in 1× TH buffer (33 mM Tris–HCl, 66 mM HEPES, pH 7.4) and 400 mM ammonium acetate (AmOAc). The mixture was heated to 95°C for 2 min in a water bath, then chilled on ice for 2 min, after which MgCl2 was added to a final concentration of 100 mM. […] This higher concentration was used in all experiments described herein. The holoenzyme was further incubated at 50°C for 10 min and 37°C for 40 min. The final concentration of holoenzyme was 333 nM (35.6 μg/ml of P RNA and 4.7 μg/ml of P protein).
The bipartite pre-tRNA substrate derived from pre-tRNA^Phe from T. maritima (Supplementary Figure S13) was designed for the ease of chemical synthesis and conceived from the fact that the anticodon loop is not required for RNase P recognition (Reiter et al.). As for the Mh substrate, fluorescent bipartite pre-tRNA was coupled to Black Hole Quencher 1 (BHQ1) at the 5′-end of the 5′ oligo, and to Alexa Fluor 488 at the 3′-end of the 3′ oligo (see Supplementary Table S1). The probes were purchased from Integrated DNA Technologies (IDT). A requested scale of 250 nmol yielded 27.4 nmol (0.36 mg) for the 5′ oligo and 3.8 nmol (50 μg) for the 3′ fluorescent oligo. Before use, the probes were diluted from a 100 μM stock (dissolved in water) and assembled by mixing and heating to 3.6 μM in activity buffer L (Tris–HCl pH 7.4 33 mM, HEPES 66 mM, 100 mM AmOAc and 10 mM MgCl2).
Reactions were performed in a total volume of 20 μl. Pipetting was done by hand using multichannel pipettes. First, an 18 μl reaction mixture containing 16.5 μl of activity buffer (H for Mh or L supplemented with 10% PEG 200 for bipartite pre-tRNA) and 270 nM (Mh) or 135 nM (bipartite pre-tRNA) (1.5 or 0.7 μl of the 3.6 μM stock) of the fluorescent substrate probe was pre-incubated on ice for at least 5 m in a black polystyrene 384-well microtiter microplate with a flat transparent bottom (Corning ref 3540). The holoenzyme was then added at a final concentration of 33 nM (2 μl of a 333 nM stock) in 1× TH buffer and mixed. Kinetic activity was monitored in a Synergy MX Multimode Detector (BioTek) at 37°C with rapid agitation. At least 20 readings were taken per well every 15 s. The probe was excited at 485 nm, and its emission was monitored at 535 nm with an integration time of 1 s. From the plots of relative fluorescent units (RFU) versus time, linear regression was used to determine the slopes in the linear portion of the curves, using at least 12 data points to obtain initial velocities. Non-linear fitting to obtain the Michaelis–Menten parameters was performed using GraphPad Prism® 6.01 software. […]

[3] = system: 3'-biotinylated minihelix (Mh; pMini3bpUG) (RNA, hairpin) GAUCUGAAUGCGGAAACGCGCCAC; assay: biolayer interferometry; settings: Mg2+ 10 mM, NH4+ 100 mM (ammonium acetate); 20 mM HEPES pH 7.4, DMSO, 30°C; highest concentration tested 1 mM

SMILES: O=C1C=C2CC3(O)COc4c(ccc(O)c4O)C3=C2C=C1O (stereo not shown) [Hematein, 3,4,6a,10-tetrahydroxy-6a,7-dihydroindeno[2,1-c]chromen-9(6H)-one]
- IC50 [1]: 4.5 ± 0.9 µM
- IC50 [2]: 87.9 ± 19.7 µM
- binding [3]: no

SMILES: O=C1C=CC(=O)c2c(O)cccc21 [Juglone, 5-hydroxy-1,4-naphthoquinone]
- IC50 [1]: 12.8 ± 1.9 µM
- IC50 [2]: 11.9 ± 1.7 µM
- binding [3]: no

SMILES: O=C1c2ccccc2C(=O)c2c(O)c(O)cc(O)c21 [Purpurin, 1,2,4-trihydroxyanthraquinone]
- Ki ([1]; competitive inhibition model, varying fluorescent Mh substrate): 1.9 ± 0.4 µM
- IC50 [1]: 96.2 ± 21.7 µM
- IC50 [2]: 13.1 ± 2.3 µM
- binding [3]: no
